# Results taken from patent US20200216493A1, “ANTIMICROBIAL PEPTIDES” (FERRING B.V., priority 2016, published 2020).
# Where two headings read alike, the source gives them in different places. Bridge positions count the residues as written; N and C are the ends. Square brackets hold non-standard residues; d marks the D form. Peptide text beside a SMILES is read from it. d(aIle) = CC[C@H](C)[C@@H](N)C(=O)O; dNMeF = CN[C@H](Cc1ccccc1)C(=O)O
# Tests used:
# S.aureus = assay type: cell-based, Staphylococcus aureus
# Procedure: (§1) This assay was used to determine the minimum concentration of a test compound (i.e., an antimicrobial peptide described herein) able to inhibit the growth of a bacterial strain of interest. This is a standard method for measuring and comparing the potency of peptide-based antibacterial agents (Steinberg et al., Antimicrobial Agents and Chemotherapy 1997, 41 (8) 1738 - 1742 and Wiegand et al., Nature Protocols 2008, 3, 163-175).
# (§2) The MIC is reported in units of μg/mL.
# (§3) Bacterial cultures were grown by inoculating Mueller-Hinton Broth (MHB) with 3 or 4 representative colony (typical size, color, and shape) from a bacterial strain grown on a LB agar plate. Inoculated liquid cultures were grown at 37° C. with moderate shaking (200-250 rpm) until bacteria produced a visibly turbid suspension. Bacterial inoculum was approximated by measuring the optical density at 600 nm (0D600) of the bacterial culture against a sterile MHB blank. Typically, OD600=0.10 corresponds to ˜1×10^8 cfu/mL for S.aureus and OD600 =0.15 corresponds to ˜1×10^8 cfu/mL for E.coli.
# (§4) Test compounds were prepared as stock solutions in vehicle at a concentration 10 times the highest concentration to be tested for antibacterial activity (usually 320 μg/mL stock solutions). 2x serial dilutions in vehicle (at 10× the final test concentrations) of the test compounds were prepared from the test compound stock solutions in a non-binding 96 well plate.
# (§5) In a sterile clear flat bottom 96 well plate, 15 μL of each test compound dilution was added to 135 μL of ˜5×10^5 cfu/mL bacterial culture. Each concentration was tested in duplicate. Each experiment contained positive control wells for bacterial growth (i.e., no test compound added to bacteria) and sterility controls wells (i.e., sterile MHB and no test compounds added). 96 well plates containing bacterial cultures and test compounds were incubated at 37° C. for 16-20 hours with shaking at 200 rpm.
# (§6) After incubation, the MIC of each test compound was determined by measuring the OD600 of each well using a plate reader. Wells with OD600 >0.08 were considered to have bacterial growth and wells with OD600<0.08 were considered to have no bacterial growth. The lowest concentration of test agent able to inhibit bacterial growth (0D600<0.08 after 16-20 hours) was defined as the MIC.
# E.coli = assay type: cell-based, Escherichia coli; settings: for MIC ratio Coli/Staph: ratio of E. coli MIC to S. aureus MIC
# Procedure: as §1, §2, §3, §4, §5, §6
# [1] = broth microdilution, Example 17a
MIC B. fragilis (B. fragilis) [µg/mL],MIC S. aureus (S.aureus) [µg/mL],MIC C. difficile (C. difficile) [µg/mL],MIC E. coli (E.coli) [µg/mL],MIC ratio Coli/Staph (E.coli),"MIC C. difficile (C. difficile; anaerobic broth microdilution, read after 44-48 hours, Example 17b) [µg/mL]",SMILES,MIC S. aureus (S.aureus; [1]) [µg/mL],MIC E. coli (E.coli; [1]) [µg/mL]
>32,0.13,0.06 to 0.12,8,62,–,"CC[C@H](C)[C@H](NC(=O)[C@H](N)Cc1ccc(Cl)cc1)C(=O)N[C@@H](CO)C(=O)N[C@H](CCC(N)=O)C(=O)N[C@@H](C(=O)N[C@H](C(=O)N[C@@H](CO)C(=O)N[C@H]1C(=O)N[C@@H](C)C(=O)N[C@@H](CCCCN)C(=O)N[C@@H]([C@@H](C)CC)C(=O)O[C@H]1C)[C@@H](C)CC)[C@@H](C)CC [Compound 4, H-D-Phe(4-Cl)-Ile-Ser-D-Gln-D-aIle-Ile-Ser-c(D-Thr-Ala-Lys-Ile)]",–,–
>32,0.13,0.03,8,62,–,"CC[C@H](C)[C@H](NC(=O)[C@@H](Cc1ccccc1)NC)C(=O)N[C@@H](CO)C(=O)N[C@H](CCC(N)=O)C(=O)N[C@@H](C(=O)N[C@H](C(=O)N[C@@H](CO)C(=O)N[C@H]1C(=O)N[C@@H](C)C(=O)N[C@@H](CCCCNC(=N)NC)C(=O)N[C@@H]([C@@H](C)CC)C(=O)O[C@H]1C)[C@@H](C)CC)[C@@H](C)CC [Compound 6, H-D-MePhe-Ile-Ser-D-Gln-D-aIle-Ile-Ser-c(D-Thr-Ala-Har(Me)-Ile)]",–,–
>32,0.13,–,32,246,≤0.03 to 0.06,"CC[C@H](C)[C@H](NC(=O)[C@@H](Cc1ccccc1)NC)C(=O)N[C@@H](Cc1c[nH]c2ccccc12)C(=O)N[C@H](CCC(N)=O)C(=O)N[C@@H](C(=O)N[C@H](C(=O)N[C@@H](CO)C(=O)N[C@H]1C(=O)N[C@@H](C)C(=O)N[C@@H](CCCCN)C(=O)N[C@@H]([C@@H](C)CC)C(=O)O[C@H]1C)[C@@H](C)CC)[C@@H](C)CC [Compound 7, H-D-MePhe-Ile-Trp-D-Gln-D-aIle-Ile-Ser-c(D-Thr-Ala-Lys-Ile)] (H-[dNMeF]IW[dQ][d(aIle)]IS[dT]AKI; ester 8-C)",–,–
>32,0.25,0.06 to 0.12,4,16,–,"CC[C@H](C)[C@H](NC(=O)[C@@H](Cc1ccccc1)NC)C(=O)N[C@@H](CO)C(=O)N[C@H](CCCCN)C(=O)N[C@@H](C(=O)N[C@H](C(=O)N[C@@H](CO)C(=O)N[C@H]1C(=O)N[C@@H](C)C(=O)N[C@@H](CCCCN)C(=O)N[C@@H]([C@@H](C)CC)C(=O)O[C@H]1C)[C@@H](C)CC)[C@@H](C)CC [Compound 14, H-D-MePhe-Ile-Ser-D-Lys-D-aIle-Ile-Ser-c(D-Thr-Ala-Lys-Ile)] (H-[dNMeF]IS[dK][d(aIle)]IS[dT]AKI; ester 8-C)",–,–
>32,0.25,0.12,16,64,–,CC[C@H](C)[C@H](NC(=O)[C@@H](Cc1ccccc1)NC)C(=O)N[C@@H](CO)C(=O)N[C@H](CCC(N)=O)C(=O)N[C@@H](C(=O)N[C@H](C(=O)N[C@@H](CO)C(=O)N[C@H]1C(=O)N[C@@H](C)C(=O)N[C@@H](CCCCN)C(=O)N[C@@H]([C@@H](C)CC)C(=O)O[C@H]1C)[C@@H](C)CC)[C@@H](C)CC [Lys10-teixobactin],–,–

# More lines, now with the values behind:
SMILES,MIC B. fragilis (B. fragilis) [µg/mL],MIC S. aureus (S.aureus) [µg/mL],MIC C. difficile (C. difficile) [µg/mL],MIC E. coli (E.coli) [µg/mL],MIC ratio Coli/Staph (E.coli),"MIC C. difficile (C. difficile; anaerobic broth microdilution, read after 44-48 hours, Example 17b) [µg/mL]",MIC S. aureus (S.aureus; [1]) [µg/mL],MIC E. coli (E.coli; [1]) [µg/mL]
"CC[C@H](C)[C@H](NC(=O)[C@@H](Cc1ccccc1)NC)C(=O)N[C@@H](CCCCN)C(=O)N[C@H](CCC(N)=O)C(=O)N[C@@H](C(=O)N[C@H](C(=O)N[C@@H](CO)C(=O)N[C@H]1C(=O)N[C@@H](C)C(=O)N[C@@H](CCCCN)C(=O)N[C@@H]([C@@H](C)CC)C(=O)O[C@H]1C)[C@@H](C)CC)[C@@H](C)CC [Compound 8, H-D-MePhe-Ile-Lys-D-Gln-D-aIle-Ile-Ser-c(D-Thr-Ala-Lys-Ile)] (H-[dNMeF]IK[dQ][d(aIle)]IS[dT]AKI; ester 8-C)",>32,–,0.06,–,31,–,0.13,4
"CC[C@H](C)[C@H](NC(=O)[C@@H](Cc1ccccc1)NC)C(=O)N[C@@H](CO)C(=O)N[C@H](CCC(N)=O)C(=O)N[C@@H](C(=O)N[C@H](C(=O)N[C@@H](CO)C(=O)N[C@H]1C(=O)N[C@@H](C)C(=O)N[C@@H](CCCCCN)C(=O)N[C@@H]([C@@H](C)CC)C(=O)O[C@H]1C)[C@@H](C)CC)[C@@H](C)CC [Compound 9, H-D-MePhe-Ile-Ser-D-Gln-D-aIle-Ile-Ser-c(D-Thr-Ala-hLys-Ile)]",>32,0.13,0.12,16,123,–,–,–
"CC[C@H](C)[C@H](NC(=O)[C@@H](Cc1ccccc1)NC)C(=O)N[C@@H](CO)C(=O)N[C@H](CCC(N)=O)C(=O)N[C@@H](C(=O)N[C@H](C(=O)N[C@@H](CO)C(=O)N[C@H]1C(=O)N[C@@H](C)C(=O)N[C@@H](CCCNC(=N)NC)C(=O)N[C@@H]([C@@H](C)CC)C(=O)O[C@H]1C)[C@@H](C)CC)[C@@H](C)CC [Compound 11, H-D-MePhe-Ile-Ser-D-Gln-D-aIle-Ile-Ser-c(D-Thr-Ala-Arg(Me)-Ile)]",>32,0.25,0.12,16,64,–,–,–
"CC[C@@H](C)[C@@H](NC(=O)[C@@H](CCC(N)=O)NC(=O)[C@H](CO)NC(=O)[C@@H](NC(=O)[C@@H](Cc1ccccc1)NC)[C@@H](C)CC)C(=O)N[C@H](C(=O)N[C@@H](CO)C(=O)N[C@H]1C(=O)N[C@@H](C)C(=O)N[C@@H](CCCCN)C(=O)N[C@@H]([C@@H](C)CC)C(=O)O[C@H]1C)[C@@H](C)CC [Compound 12, H-D-MePhe-Ile-Ser-D-Gln-D-Ile-Ile-Ser-c(D-Thr-Ala-Lys-Ile)]",>32,0.25,0.25,32,128,–,–,–
